Experimental data taken from patent publication US9067898B1, “Isothiazole derivatives as GPR120 agonists for the treatment of type II diabetes” (Janssen Pharmaceutica NV, priority 2014, dated 2015).

Target: T1, Human GPR120 short form (Homo sapiens, UniProt Q5NUL3)
T1 construct: expressed in transfected cells
T1 sequence (Q5NUL3 1-361): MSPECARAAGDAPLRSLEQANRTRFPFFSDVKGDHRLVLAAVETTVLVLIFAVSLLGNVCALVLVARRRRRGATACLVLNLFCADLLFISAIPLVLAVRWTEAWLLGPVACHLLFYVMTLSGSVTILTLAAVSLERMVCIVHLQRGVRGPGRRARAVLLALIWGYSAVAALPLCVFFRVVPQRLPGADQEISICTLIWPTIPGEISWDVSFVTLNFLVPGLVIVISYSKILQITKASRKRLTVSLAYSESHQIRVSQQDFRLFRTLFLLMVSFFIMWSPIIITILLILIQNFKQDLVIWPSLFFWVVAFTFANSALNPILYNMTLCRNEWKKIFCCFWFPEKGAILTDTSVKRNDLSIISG
Assay: Human GPR120 calcium flux assay (FLIPR), Procedure Calcium A
Type: cell-based
Settings: HEK-293 cells expressing human GPR120 short form, 2500 cells/well; read-out: GPR120 Ca2+ Assay A EC50
From the text: This in vitro assay serves to assess test compound agonist activity against the short splice variant (SVS with Accession number NM_001195755.1 confirmed by sequencing data) of the GPR120 receptor. The Human Short splice variant #2 (NM_001195755.1) is missing an in-frame coding exon compared to variant 1 (the Human Long splice variant NM_181745.3), resulting in a shorter isoform (GPR120-S) lacking a 16 aa protein segment compared to isoform GPR120-L. The assay platform utilizes HEK-293 cells stably transfected to express the Human GPR120 short form. These cells are first loaded with the Ca^+2 sensitive dye, Fluo-4 NW. Upon stimulation, intracellular released Ca^+2 can bind to the dye and alter its fluorescence intensity. This increase in fluorescence signal, and thus the flux in intracellular [Ca^2+], is detected and quantitated by fluorescence imaging using a FLIPR reader. The effect of the agonist is measured as a function of concentration and used to calculate an EC50 based upon a response curve.
In this procedure 2500 cells/well were employed.
A Human GPR120 clone (Genbank accession number NM_001195755.1) was placed into the pcDNA3.1 mammalian expression vector carrying the neomycin resistance gene. A stable mammalian cell was generated by placing the above clone into a HEK293 background. Clonal cells responding to long chain fatty acids had expression levels of GPR120 confirmed by RT-qPCR. Human HEK-GPR120 cells were cultured in Dulbecco's Modified Eagle's Medium (DMEM)/F12 medium supplemented with 10% fetal bovine serum (FBS), 1% L-Glutamine and 1% penicillin/streptomycin and 0.5 mg/ml G-418. Cells were split 2 times a week to keep the cells in the log-phase growth.
In preparation for the assay, HEK cells stably transfected with Human GPR120 (2.5K cells per well in 25 uL growth medium) were seeded into 384-well plates and then incubated overnight (37° C., 5% CO2). The next day, the media was changed to 20 μL assay buffer and the cell starved for 1 h at 37° C. The dye loading solution (2× dye) was prepared using 10 mL assay buffer, 100 μL of 250 mM probenecid, 1 bottle of Component A, and 20 μl of dye in DMSO. Twenty μL of the 2× dye loading buffer was then added to each well. The plates were incubated at 37° C. for 30 min, then at room temperature for an additional 15 minutes, before performing the assay on FLIPR. Test compounds were prepared in assay buffer (2 uL of cpd+198 uL assay buffer, final DMSO in assay plate is 0.2%) at the desired concentration, more particularly at 100, 50, 25, 12.5, 6.25, 3.125, 1.562, 0.781, 0.391, 0.195, 0.098, 0.049, 0.024 and 0.012 μM.
The assay was performed on a FLIPR plate reader using the following parameters. Baseline was read for 10 seconds at 1 sec intervals. The program was set to transfer 10 μL of ligand from compound plate to cell plate after baseline reading. Aspiration was executed at: 10 μL/sec speed, 4.6 μL height; Dispensing was executed at: 30 μL/sec speed, 45 μL height. After compound addition, each well was read for 300 sec, with measurements collected at 1 sec intervals.
The kinetic data from the FLIPR was based upon a 5 minute window for data collection. The fluorescence of each sample well was used for individual calculations of a normalized RFU value, which was defined as maximum response minus the minimum response. The normalized fluorescence reading (RFU) was calculated as follows: RFU=Fmax−Fmin The data were fitted to a sigmoidal dose-response curve with a variable Hill slope (<2) using nonlinear regression with GraphPad Prism 5.0 to calculate the EC50 values. The Fitting Equation was: Y=Bottom+(Top−Bottom)/(1+10^((Log EC50−X)*HillSlope)), where X is the log of the concentration and Y is the response.

| EC50 [nM] | SMILES |
| --- | --- |
| 166 | O=C(O)CCc1ccc(OCc2c(-c3ccc(Cl)cc3)csc2C(F)(F)F)c(F)c1F [Cpd 47, 3-(4-((4-(4-chlorophenyl)-2-(trifluoromethyl)thiophen-3-yl)methoxy)-2,3-difluorophenyl)propanoic acid] |
| 518 | OCCCc1cc(F)c(OCc2sc(F)cc2-c2ccc(Cl)cc2)c(F)c1 [Cpd 18, 3-(4-[[3-(4-chlorophenyl)-5-fluorothiophen-2-yl]methoxy]-3,5-difluorophenyl)propan-1-ol] |
| 281 | COc1ccc(-c2snc(OC)c2COc2c(F)cc(CCC(=O)O)cc2F)cc1 [Cpd 182, 3-(3,5-difluoro-4-[[3-methoxy-5-(4-methoxyphenyl)-1,2-thiazol-4-yl]methoxy]phenyl)propanoic acid] |
| 924 | CCc1ccc(-c2cc(C(F)(F)F)sc2COc2c(F)cc(CCC(=O)O)cc2F)cc1 [Cpd 22, 3-(4-((3-(4-ethylphenyl)-5-(trifluoromethyl)thiophen-2-yl)methoxy)-3,5-difluorophenyl)propanoic acid] |
| 202 | C#Cc1ccc(-c2nscc2COc2ccc(CCC(=O)O)c(C)c2C)cc1 [Cpd 161, 3-(4-((3-(4-ethynylphenyl)isothiazol-4-yl)methoxy)-2,3-dimethylphenyl)propanoic acid] |
| 303 | COc1ccc(-c2snc(Cl)c2COc2ccc(CCC(=O)O)c(C)c2C)cc1 [Cpd 186, 3-(4-[[3-chloro-5-(4-methoxyphenyl)-1,2-thiazol-4-yl]methoxy]-2,3-dimethylphenyl)propanoic acid] |
| 125 | CCc1ccc(-c2nsc(C(F)(F)F)c2COc2ccc(CCC(=O)O)c3ccccc23)cc1 [Cpd 130, 3-(4-[[3-(4-ethylphenyl)-5-(trifluoromethyl)-1,2-thiazol-4-yl]methoxy]naphthalen-1-yl)propanoic acid] |
| 1290 | CCc1ccc(-c2nsc(C(F)(F)F)c2COc2ccc(CCC(=O)O)c(C(F)(F)F)c2C)cc1 [Cpd 242, 3-(4-[[3-(4-ethylphenyl)-5-(trifluoromethyl)-1,2-thiazol-4-yl]methoxy]-3-methyl-2-(trifluoro-methyl)phenyl)propanoic acid] |
| 1090 | Cc1ccc(-c2snc(C(F)(F)F)c2COc2ccc(CCC(=O)O)c(C(F)(F)F)c2)c(C)c1 [Cpd 232, 3-(4-[[5-(2,4-dimethylphenyl)-3-(trifluoromethyl)-1,2-thiazol-4-yl]methoxy]-2-(trifluoromethyl)phenyl)propanoic acid] |
| 564 | CCc1ccc(-c2sc(C)c(C(F)(F)F)c2COc2ccc(CCC(=O)O)c(C)c2C)cc1 [Cpd 61, 3-(4-[[2-(4-ethylphenyl)-5-methyl-4-(trifluoromethyl)thiophen-3-yl]methoxy]-2,3-dimethylphenyl) propanoic acid] |
| 28 | O=C(O)CCc1ccc(OCc2c(-c3ccc(Cl)cc3)nsc2C(F)(F)F)c(F)c1 [Cpd 68, 3-(4-[[3-(4-chlorophenyl)-5-(trifluoromethyl)-1,2-thiazol-4-yl]methoxy]-3-fluorophenyl)propanoic acid] |
| 90 | Cc1ccc(-c2csc(C(F)(F)F)c2COc2c(F)cc(CCCO)cc2F)cn1 [Cpd 36, 3-(3,5-difluoro-4-((4-(6-methylpyridin-3-yl)-2-(trifluoromethyl)thiophen-3-yl)methoxy)phenyl)propan-1-61] |
| 167 | CCc1ccc(-c2nsc(C3CC3)c2COc2ccc(CCC(=O)O)c(C)c2C)cc1 [Cpd 149, 3-(4-[[5-cyclopropyl-3-(4-ethylphenyl)-1,2-thiazol-4-yl]methoxy]-2,3-dimethylphenyl)propanoic acid] |
| 165 | Cc1c(CCC(=O)O)ccc(OCc2c(-c3ccc(C(C)F)cc3)nsc2C(F)(F)F)c1C (stereo not shown) [Cpd 146, 3-[4-([3-[4-(1-fluoroethyl)phenyl]-5-(trifluoromethyl)-1,2-thiazol-4-yl]methoxy)-2,3-dimethylphenyl]propanoic acid] |

Second part, the compound before the results:

| SMILES | EC50 [nM] |
| --- | --- |
| CCc1ccc(-c2nsc(C(F)(F)F)c2COc2ccc(CCC(=O)O)c3c2CCC3)cc1 [Cpd 103, 3-(7-[[3-(4-ethylphenyl)-5-(trifluoromethyl)-1,2-thiazol-4-yl]methoxy]-2,3-dihydro-1H-inden-4-yl)propanoic acid] | 80 |
| CCc1ccc(-c2cc(C(F)(F)F)sc2COc2ccc(CCC(=O)O)c(F)c2F)cc1 [Cpd 21, 3-(4-((3-(4-ethylphenyl)-5-(trifluoromethyl)thiophen-2-yl)methoxy)-2,3-difluorophenyl)propanoic acid] | 788 |
| CCc1ccc(-c2nsc(C(F)(F)F)c2COc2ccc3c(c2)CCC3CC(=O)O)cc1 (stereo not shown) [Cpd 176, 2-(5-[[3-(4-ethylphenyl)-5-(trifluoromethyl)-1,2-thiazol-4-yl]methoxy]-2,3-dihydro-1H-inden-1-yl)acetic acid] | 261 |
| CCc1ccc(-c2sncc2COc2ccc(CCC(=O)O)c(C)c2C)cc1 [Cpd 158, 3-(4-[[5-(4-ethylphenyl)-1,2-thiazol-4-yl]methoxy]-2,3-dimethylphenyl)propanoic acid] | 191 |
| Cc1cc(OCc2c(-c3ccc(Cl)cc3)nsc2C(F)(F)F)c(F)cc1CCC(=O)O [Cpd 125, 3-(4-((3-(4-chlorophenyl)-5-(trifluoromethyl)isothiazol-4-yl)methoxy)-5-fluoro-2-methylphenyl)propanoic acid] | 121 |
| CCc1ccc(-c2nsc(CC)c2COc2ccc(CCC(=O)O)c(C)c2C)cc1 [Cpd 217, 3-(4-[[5-ethyl-3-(4-ethylphenyl)-1,2-thiazol-4-yl]methoxy]-2,3-dimethylphenyl)propanoic acid] | 677 |
| CCc1ccc(-c2nsc(C(F)(F)F)c2COc2ccc3c(c2)OCC3CCO)cc1 (stereo not shown) [Cpd 220, 2-(6-[[3-(4-ethylphenyl)-5-(trifluoromethyl)-5H-1[3],2-thiazol-4-yl]methoxy]-2,3-dihydro-1-benzofuran-3-yl)ethan-1-ol] | 702 |
| CCc1ccc(-c2nsc(C(F)(F)C(F)(F)F)c2COc2ccc(CCC(=O)O)c(C)c2C)cc1 [Cpd 192, 3-(4-[[3-(4-ethylphenyl)-5-(pentafluoroethyl)-1,2-thiazol-4-yl]methoxy]-2,3-dimethylphenyl)propanoic acid] | 332 |
| COc1cc(-c2nsc(C(F)(F)F)c2COc2c(F)cc(CCC(=O)O)cc2F)ccc1Cl [Cpd 177, 3-(4-((3-(4-chloro-3-methoxyphenyl)-5-(trifluoromethyl)isothiazol-4-yl)methoxy)-3,5-difluorophenyl)propanoic acid] | 263 |
| COc1ccc(-c2csc(C(F)(F)F)c2COc2ccc(CCC(=O)O)c(C)c2C)cc1 [Cpd 60, 3-(4-((4-(4-methoxyphenyl)-2-(trifluoromethyl)thiophen-3-yl)methoxy)-2,3-dimethylphenyl)propanoic acid] | 510 |
| CC(=O)c1ccc(-c2nsc(C(F)(F)F)c2COc2c(F)cc(CCC(=O)O)cc2F)cc1 [Cpd 131, 3-(4-[[3-(4-acetylphenyl)-5-(trifluoromethyl)-1,2-thiazol-4-yl]methoxy]-3,5-difluorophenyl) propanoic acid] | 129 |
